Measured values as given in patent publication US20170246130A1, “4-HYDROXYBENZOHYDARZIDE-A NEW CLASS OF ANGIOGENIC ENZYME THYMIDINE PHOSPHORYLASE INHIBITORS” (priority 2016, published 2017).
“Also recorded” adds a separate entry of the source.

Columns and labels:
[1] = molecular target: T1, thymidine phosphorylase (E. coli) (Escherichia coli, UniProt P07650); experiment: In-vitro thymidine phosphorylase inhibition assay (spectrophotometric); assay type: biochemical; conditions: recombinant E. coli TP, thymidine substrate, pH 7.0, 30° C., 290 nm; read-out: IC50 (μM ± S.E.M.), thymidine phosphorylase inhibition
T1 construct: purchased Sigma Aldrich, USA; host or cells: Escherichia coli
T1 sequence (P07650 whole entry): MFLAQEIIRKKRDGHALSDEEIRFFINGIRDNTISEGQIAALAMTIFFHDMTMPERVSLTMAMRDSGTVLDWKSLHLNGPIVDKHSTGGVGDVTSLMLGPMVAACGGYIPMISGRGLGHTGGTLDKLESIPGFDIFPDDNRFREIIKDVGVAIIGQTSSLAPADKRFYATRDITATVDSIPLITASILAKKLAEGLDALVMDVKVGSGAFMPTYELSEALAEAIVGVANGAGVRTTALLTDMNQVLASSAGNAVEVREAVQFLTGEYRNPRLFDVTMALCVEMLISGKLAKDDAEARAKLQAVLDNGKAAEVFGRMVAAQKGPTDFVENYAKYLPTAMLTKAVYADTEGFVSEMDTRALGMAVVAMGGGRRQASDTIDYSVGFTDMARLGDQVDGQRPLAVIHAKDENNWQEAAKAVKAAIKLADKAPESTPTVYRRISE
Method: In vitro studies on thymidine phosphorylase were carried out in 96-well microtiter plate using Spectra Max-340 and Spectra Max-384 spectrophotometers (Molecular Devices, CA, USA). Deionized water used for buffer preparation was collected by Simplicity Water Purification System (Milipore).
Since human TP is not commercially available, we used commercially available recombinant E. coli TP (expressed in Escherichia coli) enzyme. Primary sequence of TP is mostly conserved throughout the evolution as mammalian TP share 39% sequence similarity with TP of E. coli. The mammalian enzyme also shared 65-70% similarity with the active site residues of E. coli TP enzyme (Bronckaers et al., 2009). Assay for thymidine phosphorylase inhibition was performed spectrophotometrically, following method of Bera et al. with some modifications (Bera et al., 2013).
The reaction catalyzed by thymidine phosphorylase involves reversible phosphorolysis of thymidine (FIG. 1), to thymine and 2-deoxyribose-1-phosphate (Bronckaers et al., 2009).
Reaction mixture contained 150 μL of potassium phosphate buffer (pH 7.0, 50 mM), 20 µL of enzyme (0.058 U/well) and 10 μL of test compound (0.5 mM in dimethylsulfoxide). The reaction mixture was incubated for 10 min at 30° C.
The enzyme inhibitory activities were calculated using the following formula:
Percent Inhibition=100−(O.D. of test/O.D. of control)×100
Where test is the enzyme activity with sample, and control is the enzyme activity without sample, and O.D. is optical density.
The IC50 of the compounds was calculated using EZ-Fit Enzyme Kinetic Program (Perrella Scientific Inc., Amhrest, U.S.A.).

[2] = molecular target: T1, thymidine phosphorylase (E. coli); experiment: Kinetic (mechanistic) studies on thymidine phosphorylase; assay type: biochemical; conditions: for Inhibition Type: Lineweaver-Burk plot; for Inhibition Type / Ki: thymidine as variable substrate; for Ki: secondary re-plot, confirmed by Dixon plot, read-out: Ki (μM ± S.E.M.), dissociation constant; for apparent Vmax (Lineweaver-burk plot) / apparent km of the enzyme (Lineweaver-burk plot): absence and different concentrations of compound
Method: These studies disclose the mechanism of inhibitor binding to enzyme. Kinetic studies were carried out using thymidine as variable substrate. […] This was deduced from Lineweaver Burk plot. This compound therefore, interacted either with the amino acids of hydrophobic pocket of the enzyme or at allosteric site of the enzyme. […] Uncompetitive inhibitor causes decrease in both Km and Vmax values of the enzyme (Figure-6). […] Ki values were determined by secondary re-plot, and confirmed by Dixon plot.
Kinetic studies were carried out to find the mechanism of inhibitor action. Inhibitor could bind with enzyme in multiple ways such as in competitive, non-competitive, mixed or uncompetitive way. In kinetic assay, the enzyme (0.058 U/200 μL) was incubated with different concentrations of inhibitor for 10 min at 30° C. The reactions was then initiated by adding different concentrations (0.1875 mM-1.5 mM) of substrate (thymidine) and the resulting degradation of thymidine was measured continuously at 290 nm for 10 min on a ELISA plate reader. Every experiment was run in triplicate.
Line-weaver Burk plot was plotted to determine the type of inhibition. This was accomplished by plotting the reciprocal of the rate of reaction against the reciprocal of the substrate concentration. Ki values were determined by secondary re-plot, and reconfirmed by Dixon plot. The Ki was determined by non-linear regression equation.

[3] = tested on: mouse fibroblast cell line (3T3); experiment: MTT anti-proliferative assay, 3T3 cells; assay type: cell-based; conditions: for inhibition of the proliferation of 3T3 cells (in words): in comparison to cyclohexamide; for IC50 ± SD (μM), 3T3 Cell Line: 48 h, 3T3 cells
Method: (§1) Compounds found to be active in inhibiting thymidine phosphorylase were then subjected to MTT proliferation assay. Rapid proliferation is the property inherent to cancerous/tumor cells. This assay was carried out to study the effect of these compounds on proliferation of various cell lines. The cell lines which we targeted were mouse fibroblast cell line (3T3), and prostate cancer line (PC3).
(§2) Anti-proliferative activity of active compounds was evaluated by using the standard MTT (3-[4,5-dimethylthiazole-2-yl]-2,5-diphenyl-tetrazolium bromide) colorimetric assay in 96-well plate (Dimas et al., 1998).
(§3) It is a colorimetric assay that measures the reduction of MTT, by mitochondrial enzyme i.e. succinate dehydrogenase. The MTT enters into the mitochondria of cell, where it is reduced to an insoluble formazan salt (FIG. 8). The extent of MTT reduction was measured at 540 nm. As reduction of MTT can only occur in metabolically active cells, the level of activity is actually a measure of the viability of the cells (Vega-Avila and Pugsley, 2011).
(§4) Mouse fibroblast cell line 3T3 was cultured in DMEM, supplemented with 5% of FBS, 100 IU/mL of penicillin and 100 μg/mL of streptomycin, and kept at 37° C. in 5% CO2 incubator. For the preparation of cell culture, 100 μL/well of cell solution (5×10^4 cells/mL) was added into 96-well plate. The plate was incubated for overnight, and fresh medium was added after the removal of old medium. The test compounds were also added in different concentrations into the plate and plate was again incubated for 48 h. After the completion of this incubation period, 200 μL MTT (0.5 mg/mL) was added and plate was again incubated for 4 h, after this final incubation 100 μL of DMSO was added to each well. The level of MTT reduction to formazan was evaluated by change in absorbance at 540 nm using a micro plate reader (Spectra Max plus, Molecular Devices, CA, USA).

[4] = tested on: prostate cancer line (PC3); experiment: MTT anti-proliferative assay, PC3 cells; assay type: cell-based; conditions: for IC50 ± SD (μM), PC3 Cell Line: PC3 cells
Method: as §1, §2, §3, §4

Compound	IC50 [1] [µM]	Inhibition Type [2]	Ki [2] [µM]	inhibition of the proliferation of 3T3 cells (in words) [3]	IC50 ± SD (μM), PC3 Cell Line [4]	apparent Vmax (Lineweaver-burk plot) [2]	apparent km of the enzyme (Lineweaver-burk plot) [2]	IC50 ([4]; Homo sapiens, PC-3, PC3 cells, read-out: IC50 ± SD (μM), PC3 Cell Line) [µM]	inhibition of the proliferation of PC3 cancer cells (in words) ([4]; in comparison of doxorubucin)	IC50 ± SD (μM), 3T3 Cell Line [3]
CC/C(=N\NC(=O)c1ccc(O)cc1)c1cc(O)ccc1O [Compound 30, 4-Hydroxy-N′-[(E)-1-(2,5-dihydroxyphenyl)propylidene]benzohydrazide]	173 ± 1.4	un-competitive; also recorded: Uncompetitive	159.05 ± 0.002	significantly inhibit	Inactive	–	–	–	–	–
O=C(N/N=C/c1cc(Br)cc(Br)c1O)c1ccc(O)cc1 [Compound 24, 4-Hydroxy-N′-[(E)-(3,5-dibromo-2-hydroxyphenyl)methylidene]benzohydrazide]	6.8 ± 0.7	Non-Competitive	1.75 ± 0.009	significantly inhibit	–	decreased	remains unaffected	8.34 ± 0.965	significantly inhibit	–
O=C(N/N=C/c1ccc(O)c(O)c1)c1ccc(O)cc1 [Compound 5, 4-Hydroxy-N′-[(E)-(3,4-dihydroxyphenyl)methylidene]benzohydrazide]	229.5 ± 0.4	un-competitive; also recorded: Uncompetitive	176.65 ± 0.006	significantly inhibit	Inactive	–	–	–	–	–
O=C(N/N=C/c1ccc(Cl)cc1)c1ccc(O)cc1 [Compound 12, 4-Hydroxy-N′-[(E)-(4-chlorophenyl)methylidene]benzohydrazide]	159 ± 0.4	un-competitive; also recorded: Uncompetitive	138 ± 0.009	–	Inactive	–	–	–	–	Inactive
C/C(=N\NC(=O)c1ccc(O)cc1)c1c(O)cccc1O [Compound 27, 4-Hydroxy-N′-[(E)-1-(2,6-dihydroxyphenyl)ethylidene]benzohydrazide]	176.9 ± 1.6	un-competitive; also recorded: Uncompetitive	168 ± 0.003	significantly inhibit	Inactive	decreased	remains unaffected	–	–	–
Oc1nc(O)c2cc[nH]c2n1 [7-Deazaxanthine, 2,4-Dihydroxypyrrolo[2,3-d]pyrimidine, reference compound]	–	Non-Competitive	–	–	–	–	–	–	–	–
O=C(N/N=C/c1ccc(Br)cc1)c1ccc(O)cc1 [Compound 14, 4-Hydroxy-N′-[(E)-(4-bromophenyl)methylidene]benzohydrazide]	158 ± 1	un-competitive; also recorded: Uncompetitive	80.5 ± 0.002	–	Inactive	–	–	–	–	Inactive
